The text below walks through data of ChEMBL document CHEMBL1201862, “PubChem BioAssay data set” (2004).

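96-well plates; 48 h exposure; 5 concentrations. Endpoints by linear interpolation between flanking doses. Not reached: highest tested concentration assigned. GI50 = concentration required for 50% inhibition of growth.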 The source made the active and inactive calls. Cut-off read from the data, not from the text of the source: active = GI50 up to about 1.1 µM and inactive = higher. Square brackets hold non-standard residues; d marks the D form. Peptide text beside a SMILES is read from it. Ac5c = NC1(C(=O)O)CCCC1

Among the test systems are ACHN; CCRF-CEM; COLO 205; EKVX; Hs-578T; IGROV-1; LOX IMVI; MOLT-4; NCI-H226; OVCAR-5; SF-268; SK-MEL-28; SK-OV-3; SN12C; SNB-75; SR; T47D; U-251; UACC-257; A498.
Test in all cases: growth of human tumour cells (NCI), 48 h

Consider `O=C1Oc2cc(O)cc(/C=C/c3ccc(O)cc3)c2[C@@]12c1c(O)cc(O)cc1OC2c1cccc(O)c1` (some centres undefined), for which the GI50 in the assay on ACHN is 52.5 µM (inactive); with CCRF-CEM it was 22 µM (inactive); in the assay on COLO 205, 26 µM (inactive); in the assay on EKVX it was 49.3 µM (inactive); with Hs-578T, 20.5 µM (inactive); in the assay on IGROV-1 it was 0.61 µM (active). The GI50 in the assay with LOX IMVI is 23.3 µM (inactive); in the assay with MOLT-4, 42.8 µM (inactive); in the assay with NCI-H226, 11.1 µM (inactive); in the assay with OVCAR-5, 29.2 µM (inactive); with SF-268 it was 36.6 µM (inactive); in the assay on SK-MEL-28 it was 37.3 µM (inactive). Further, the GI50 in the assay on SK-OV-3 is 30.8 µM (inactive); in the assay with SN12C, 25.9 µM (inactive); with SNB-75, 52.2 µM (inactive); in the assay with SR, 42.4 µM (inactive); in the assay with T47D, 44.8 µM (inactive); in the assay on U-251, 32.9 µM (inactive). In addition, in the assay on UACC-257, the GI50 was 15.2 µM (inactive).
For `Cn1c(NNc2ccccc2)cc(=O)[nH]c1=O`, the GI50 in the assay on ACHN is 4.25 µM (inactive); in the assay on CCRF-CEM, 20.6 µM (inactive); with COLO 205 it was 36.9 µM (inactive); with EKVX, > 100 µM (inactive); in the assay on Hs-578T it was > 100 µM (inactive); in the assay on IGROV-1, 48.2 µM (inactive). The GI50 is 20 µM (inactive) in the assay with LOX IMVI; 39.3 µM (inactive) in the assay with MOLT-4; > 100 µM (inactive) with NCI-H226; > 100 µM (inactive) in the assay with OVCAR-5; 34.1 µM (inactive) with SF-268; 37.8 µM (inactive) in the assay on SK-MEL-28. Further, the GI50 with SK-OV-3 was 72.6 µM (inactive); in the assay on SN12C, > 100 µM (inactive); with SNB-75 it was 81.7 µM (inactive); in the assay with SR, 22.6 µM (inactive); with T47D, 30.9 µM (inactive); in the assay with U-251 it was 53.5 µM (inactive). Further, the GI50 in the assay with UACC-257 was 95.7 µM (inactive).
As for `CN1CCCN(C)CCCN(C)CCCN(C)CCC1`, the GI50 in the assay on ACHN, in the assay on CCRF-CEM, in the assay with COLO 205, with EKVX, in the assay with Hs-578T and with IGROV-1 was > 100 µM (inactive) in each case. For the same molecule, the GI50 in the assay on MOLT-4, in the assay on NCI-H226, in the assay with OVCAR-5, with SF-268, with SK-MEL-28 and with SK-OV-3 was > 100 µM (inactive) throughout. The GI50 in the assay with SR, in the assay with T47D, in the assay with U-251 and in the assay with UACC-257 was > 100 µM (inactive) in each case.
With `NCC(=O)NC1(C(=O)O)CCCC1` (H-Gly-[Ac5c]-OH), the GI50 in the assay with A498, with ACHN, in the assay on COLO 205, in the assay with EKVX, with Hs-578T and in the assay with IGROV-1 was > 100 µM (inactive) throughout. Further, the GI50 with LOX IMVI, with MOLT-4, with OVCAR-5, in the assay on SF-268, with SK-MEL-28 and in the assay on SK-OV-3 was > 100 µM (inactive) each time. Further, the GI50 in the assay on SN12C, with SNB-75, in the assay on SR, in the assay with T47D, with U-251 and in the assay on UACC-257 was > 100 µM (inactive) in each case.
Regarding `CC1CCC2C(C)C(=O)OC2C2(C)C(=O)C=CC12` (centres undefined), the GI50 with ACHN is > 10 µM (inactive); in the assay on CCRF-CEM, 3.92 µM (inactive); with COLO 205, > 10 µM (inactive); with EKVX, > 10 µM (inactive); in the assay on Hs-578T, > 10 µM (inactive); in the assay with IGROV-1 it was > 10 µM (inactive). Further, the GI50 in the assay on LOX IMVI is 8.69 µM (inactive); in the assay with MOLT-4 it was 6.59 µM (inactive); in the assay on NCI-H226 it was > 10 µM (inactive); in the assay with OVCAR-5, > 10 µM (inactive); in the assay with SF-268, > 10 µM (inactive); in the assay with SK-MEL-28, > 10 µM (inactive). For the same molecule, the GI50 in the assay with SK-OV-3 is > 10 µM (inactive); in the assay on SN12C, > 10 µM (inactive); with SNB-75, > 10 µM (inactive); in the assay on SR it was 3.61 µM (inactive); in the assay on T47D, > 10 µM (inactive); with U-251 it was > 10 µM (inactive). Further, the GI50 in the assay with UACC-257 is > 10 µM (inactive).
Turning to `CCOC(=O)c1c(-c2ccc(OC)cc2)c(C#N)c(=S)n(C2OC(CO)C(O)C(O)C2O)c1-c1ccccc1` (centres undefined), the GI50 with ACHN was 54.7 µM (inactive); in the assay with CCRF-CEM, 31.2 µM (inactive); with COLO 205, 49.3 µM (inactive); in the assay on Hs-578T, 25.2 µM (inactive); in the assay on IGROV-1, 59.6 µM (inactive); in the assay on LOX IMVI, 41.9 µM (inactive). Further, the GI50 was 30.7 µM (inactive) with MOLT-4; > 100 µM (inactive) in the assay on OVCAR-5; 68.7 µM (inactive) with SF-268; 50.4 µM (inactive) with SK-MEL-28; 90.6 µM (inactive) with SK-OV-3; 42.7 µM (inactive) with SN12C. Moreover, the GI50 in the assay on SNB-75 is 78.7 µM (inactive); with SR, 54.7 µM (inactive); in the assay on T47D it was 52.2 µM (inactive); with U-251, 47.1 µM (inactive); in the assay on UACC-257, > 100 µM (inactive).
With `COc1cc(/C=C2/SC(c3ccccc3)N(c3ccc(NC(C)=O)cc3)C2=O)cc(OC)c1OC` (centres undefined), the GI50 is > 100 µM (inactive) with A498; > 100 µM (inactive) in the assay on ACHN; > 100 µM (inactive) with COLO 205; > 100 µM (inactive) in the assay on EKVX; 35.5 µM (inactive) with Hs-578T; 72.1 µM (inactive) with LOX IMVI. Also, the GI50 is 31.3 µM (inactive) with MOLT-4; > 100 µM (inactive) in the assay on NCI-H226; > 100 µM (inactive) in the assay on OVCAR-5; 75.2 µM (inactive) in the assay on SF-268; > 100 µM (inactive) in the assay on SK-MEL-28; > 100 µM (inactive) in the assay on SK-OV-3. The GI50 is > 100 µM (inactive) with SN12C; 30.8 µM (inactive) in the assay with SR; 84.3 µM (inactive) with T47D; > 100 µM (inactive) in the assay with U-251; > 100 µM (inactive) in the assay on UACC-257.
On to `CC(C)=CCc1cc2c(cc1O)OC[C@H]1c3cc4c(cc3O[C@@H]21)OCO4`, for which the GI50 in the assay on ACHN was 42.4 µM (inactive); in the assay with CCRF-CEM it was 26.4 µM (inactive); in the assay with COLO 205, > 100 µM (inactive); with EKVX it was 22.2 µM (inactive); in the assay on Hs-578T, 18.2 µM (inactive); with IGROV-1 it was > 100 µM (inactive). Further, the GI50 is 17.3 µM (inactive) with LOX IMVI; 22.1 µM (inactive) with MOLT-4; 23.8 µM (inactive) in the assay on NCI-H226; 61.7 µM (inactive) with OVCAR-5; 56.6 µM (inactive) in the assay with SF-268; 83.4 µM (inactive) with SK-MEL-28. The GI50 is > 100 µM (inactive) in the assay on SK-OV-3; > 10 µM (inactive) in the assay on SN12C; 78.7 µM (inactive) in the assay on SNB-75; 33.6 µM (inactive) with SR; 34.4 µM (inactive) in the assay on T47D; 37.5 µM (inactive) with U-251. Besides, in the assay with UACC-257, the GI50 is 45.3 µM (inactive).
